Measured values published in patent publication US8697873B2, “Amide substituted imidazopyridines, imidazoquinolines, and imidazonaphthyridines” (3M Innovative Properties Company, priority 2004, dated 2014).
Where a name gives a salt, the structure may show the parent alone.

SMILES	melting point
CCCc1nc2c(N)nc3ccccc3c2n1CCCC(=O)N1CCOCC1 [Example 1, 1-(4-Morpholin-4-yl-4-oxobutyl)-2-propyl-1H-imidazo[4,5-c]quinolin-4-amine]	200 to 202 °C
CCOCc1nc2c(N)nc3ccccc3c2n1CCCC(=O)N1CCOCC1 [Example 5, 2-(Ethoxymethyl)-1-(4-morpholin-4-yl-4-oxobutyl)-1H-imidazo[4,5-c]quinolin-4-amine]	201 to 203 °C
CCCc1nc2c(N)nc3ccccc3c2n1CCCCCC(=O)N1CCOCC1 [Example 6, 1-(6-Morpholin-4-yl-6-oxohexyl)-2-propyl-1H-imidazo[4,5-c]quinolin-4-amine]	149 to 151 °C
CCCNC(=O)CCCCCn1c(CCC)nc2c(N)nc3ccccc3c21 [Example 7, 6-(4-Amino-2-propyl-1H-imidazo[4,5-c]quinolin-1-yl)-N-propylhexanamide]	139 to 141 °C
CCCc1nc2c(N)nc3ccccc3c2n1CCCCCC(N)=O [Example 9, 6-(4-Amino-2-propyl-1H-imidazo[4,5-c]quinolin-1-yl)hexanamide]	210 to 211 °C
CCCNC(=O)CCCCCn1cnc2c(N)nc3ccccc3c21 [Example 10, 6-(4-Amino-1H-imidazo[4,5-c]quinolin-1-yl)-N-propylhexanamide]	128 to 130 °C
Nc1nc2ccccc2c2c1ncn2CCCCCC(=O)N1CCOCC1 [Example 11, 1-(6-Morpholin-4-yl-6-oxohexyl)-1H-imidazo[4,5-c]quinolin-4-amine]	166 to 168 °C
CCCNC(=O)CCn1c(CCC)nc2c(N)nc3ccccc3c21 [Example 15, 3-(4-Amino-2-propyl-1H-imidazo[4,5-c]quinolin-1-yl)-N-propylpropanamide]	157 to 158 °C
CCCc1nc2c(N)nc3ccccc3c2n1CCC(=O)N1CCOCC1 [Example 16, 1-(3-Morpholin-4-yl-3-oxopropyl)-2-propyl-1H-imidazo[4,5-c]quinolin-4-amine]	172 to 173 °C
COCCc1nc2c(N)nc3ccccc3c2n1CCC(=O)N1CCOCC1 [Example 19, 2-(2-Methoxyethyl)-1-(3-morpholin-4-yl-3-oxopropyl)-1H-imidazo[4,5-c]quinolin-4-amine]	125 to 126 °C
CNC(=O)CCn1cnc2c(N)nc3ccccc3c21 [Example 20, 3-(4-Amino-1H-imidazo[4,5-c]quinolin-1-yl)-N-methylpropanamide]	> 260 °C
CCOCc1nc2c(N)nc3ccccc3c2n1CCC(=O)N1CCOCC1 [Example 23, 2-(Ethoxymethyl)-1-(3-morpholin-4-yl-3-oxopropyl)-1H-imidazo[4,5-c]quinolin-4-amine]	187 to 189 °C
CCOCc1nc2c(N)nc3ccccc3c2n1CCC(N)=O [Example 24, 3-[4-Amino-2-(ethoxymethyl)-1H-imidazo[4,5-c]quinolin-1-yl]propanamide]	> 250 °C
CCCc1nc2c(N)nc3ccccc3c2n1CCCCCCCCCCCC(=O)NC [Example 25, 12-(4-Amino-2-propyl-1H-imidazo[4,5-c]quinolin-1-yl)-N-methyldodecanamide]	135 to 137 °C
CCCc1nc2c(N)nc3ccccc3c2n1CC(C)(C)C(N)=O [Example 26, 3-(4-Amino-2-propyl-1H-imidazo[4,5-c]quinolin-1-yl)-2,2-dimethylpropanamide]	219 to 221 °C
CCOCc1nc2c(N)nc3ccccc3c2n1CC(C)(C)C(N)=O [Example 28, 3-[4-Amino-2-(ethoxymethyl)-1H-imidazo[4,5-c]quinolin-1-yl]-2,2-dimethylpropanamide]	241 to 243 °C
CCCc1nc2c(N)nc3c(c2n1CCCCCC(=O)N1CCOCC1)CCCC3 [Example 30, 1-(6-Morpholin-4-yl-6-oxohexyl)-2-propyl-6,7,8,9-tetrahydro-1H-imidazo[4,5-c]quinolin-4-amine]	162 to 163 °C
Cc1nc2c(N)nc3ccccc3c2n1CCC(N)=O [Example 31, 3-(4-Amino-2-methyl-1H-imidazo[4,5-c]quinolin-1-yl)propanamide]	237 to 239 °C
CCCNC(=O)CCn1c(C)nc2c(N)nc3ccccc3c21 [Example 32, 3-(4-Amino-2-methyl-1H-imidazo[4,5-c]quinolin-1-yl)-N-propylpropanamide]	188 to 189 °C
CCOCc1nc2c(N)nc3ccccc3c2n1CCCC(N)=O [Example 33, 4-[4-Amino-2-(ethoxymethyl)-1H-imidazo[4,5-c]quinolin-1-yl]butanamide]	233 to 235 °C
CCCc1nc2c(N)nc3ccccc3c2n1CCCCC(=O)N1CCOCC1 [Example 34, 1-(5-Morpholin-4-yl-5-oxopentyl)-2-propyl-1H-imidazo[4,5-c]quinolin-4-amine]	178 to 179 °C
CCCc1nc2c(N)nc3ccccc3c2n1CCCCC(N)=O [Example 35, 5-(4-Amino-2-propyl-1H-imidazo[4,5-c]quinolin-1-yl)pentanamide]	202 to 203 °C
CCCc1nc2c(N)nc3cccnc3c2n1CCCC(=O)N1CCOCC1 [Example 37, 1-(4-Morpholin-4-yl-4-oxobutyl)-2-propyl-1H-imidazo[4,5-c][1,5]naphthyridin-4-amine]	196 to 197 °C
CCOCc1nc2c(N)nc3cccnc3c2n1CCCC(N)=O [Example 39, 4-[4-Amino-2-(ethoxymethyl)-1H-imidazo[4,5-c][1,5]naphthyridin-1-yl]butanamide]	231 to 232 °C
CCCc1nc2c(N)nc(C)c(C)c2n1CCCC(N)=O [Example 40, 4-(4-Amino-6,7-dimethyl-2-propyl-1H-imidazo[4,5-c]pyridin-1-yl)butanamide]	226 to 228 °C
CCCc1nc2c(N)nc(C)c(C)c2n1CCCC(=O)N1CCOCC1 [Example 41, 6,7-Dimethyl-1-(4-morpholin-4-yl-4-oxobutyl)-2-propyl-1H-imidazo[4,5-c]pyridin-4-amine]	164 to 165 °C
CCc1nc2c(N)nc(C)c(C)c2n1CCCC(=O)N1CCOCC1 [Example 43, 2-Ethyl-6,7-dimethyl-1-(4-morpholin-4-yl-4-oxobutyl)-1H-imidazo[4,5-c]pyridin-4-amine]	209 to 210 °C
CCOCc1nc2c(N)nc(C)c(C)c2n1CCCC(N)=O [Example 44, 4-[4-Amino-2-(ethoxymethyl)-6,7-dimethyl-1H-imidazo[4,5-c]pyridin-1-yl]butanamide]	199 to 200 °C

Other lines, results leading:

melting point	SMILES
242 to 243 °C	CCCc1nc2c(N)nc3ccccc3c2n1CCC(N)=O (as salt: hydrochloride) [Example 18, 3-(4-Amino-2-propyl-1H-imidazo[4,5-c]quinolin-1-yl)propanamide hydrochloride]
287 to 289 °C	CC(C)(Cn1cnc2c(N)nc3ccccc3c21)C(N)=O (as salt: salt) [Example 62, 3-(4-Amino-1H-imidazo[4,5-c]quinolin-1-yl)-2,2-dimethylpropanamide]
161 to 163 °C	CCCNC(=O)CCCn1c(CCC)nc2c(N)nc3ccccc3c21 [Example 2, 4-(4-Amino-2-propyl-1H-imidazo[4,5-c]quinolin-1-yl)-N-propylbutanamide]
249 to 251 °C	CCCc1nc2c(N)nc3ccccc3c2n1CCCC(N)=O [Example 4, 4-(4-Amino-2-propyl-1H-imidazo[4,5-c]quinolin-1-yl)butanamide]
158 to 159 °C	CCCc1nc2c(N)nc3ccccc3c2n1CCCCCC(=O)NC [Example 8, 6-(4-Amino-2-propyl-1H-imidazo[4,5-c]quinolin-1-yl)-N-methylhexanamide]
131 to 132 °C	COCCc1nc2c(N)nc3ccccc3c2n1CCCCCC(=O)N1CCOCC1 [Example 12, 2-(2-Methoxyethyl)-1-(6-morpholin-4-yl-6-oxohexyl)-1H-imidazo[4,5-c]quinolin-4-amine]
160 to 162 °C	CCOCc1nc2c(N)nc3ccccc3c2n1CCCCCC(=O)N1CCOCC1 [Example 13, 2-(Ethoxymethyl)-1-(6-morpholin-4-yl-6-oxohexyl)-1H-imidazo[4,5-c]quinolin-4-amine]
161 to 162 °C	CCCNC(=O)CCCCCn1c(COCC)nc2c(N)nc3ccccc3c21 [Example 14, 6-[4-Amino-2-(ethoxymethyl)-1H-imidazo[4,5-c]quinolin-1-yl]-N-propylhexanamide]
177 to 178 °C	CCCc1nc2c(N)nc3ccccc3c2n1CCC(=O)NC [Example 17, 3-(4-Amino-2-propyl-1H-imidazo[4,5-c]quinolin-1-yl)-N-methylpropanamide]
212 to 214 °C	CCCNC(=O)CCn1cnc2c(N)nc3ccccc3c21 [Example 21, 3-(4-Amino-1H-imidazo[4,5-c]quinolin-1-yl)-N-propylpropanamide]
166 to 169 °C	Cc1nc2c(N)nc3ccccc3c2n1CCC(=O)N1CCOCC1 [Example 22, 2-Methyl-1-(3-morpholin-4-yl-3-oxopropyl)-1H-imidazo[4,5-c]quinolin-4-amine]
212 to 214 °C	CCCc1nc2c(N)nc3ccccc3c2n1CC(C)(C)C(=O)N1CCOCC1 [Example 27, 1-(2,2-Dimethyl-3-morpholin-4-yl-3-oxopropyl)-2-propyl-1H-imidazo[4,5-c]quinolin-4-amine]
181 to 183 °C	CCCc1nc2c(N)nc3c(c2n1CCCC(=O)N1CCOCC1)CCCC3 [Example 29, 1-(4-Morpholin-4-yl-4-oxobutyl)-2-propyl-6,7,8,9-tetrahydro-1H-imidazo[4,5-c]quinolin-4-amine]
128 to 129 °C	COCCc1nc2c(N)nc3ccccc3c2n1CCCCC(=O)N1CCOCC1 [Example 36, 2-(2-Methoxyethyl)-1-(5-morpholin-4-yl-5-oxopentyl)-1H-imidazo[4,5-c]quinolin-4-amine]
156 to 157 °C	CCOCc1nc2c(N)nc3cccnc3c2n1CCCC(=O)N1CCOCC1 [Example 38, 2-(Ethoxymethyl)-1-(4-morpholin-4-yl-4-oxobutyl)-1H-imidazo[4,5-c][1,5]naphthyridin-4-amine]
228 to 230 °C	CCc1nc2c(N)nc(C)c(C)c2n1CCCC(N)=O [Example 42, 4-(4-Amino-2-ethyl-6,7-dimethyl-1H-imidazo[4,5-c]pyridin-1-yl)butanamide]
